From patent US20230139445A1, “BACTERIAL CELLS WITH IMPROVED TOLERANCE TO DIACIDS” (priority 2016, published 2023)
Where two headings read alike, the source gives them in different places.

Tests used:
[1] = tested on: Escherichia coli K-12 MG1655 and evolved isolates; format: cell-based; conditions: 45 g/L fumaric acid
Method in brief: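 Wild-type MG1655 and evolved isolates, precultured overnight in M9 + 1% glucose at 37 °C, were diluted into M9 + 1% glucose. Growth at 37 °C, 225 rpm, scanned every 15 min; pixel values calibrated to OD600. Diacids tested as sodium salts or neutralized to pH 7.0.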

[2] = tested on: Escherichia coli K-12 MG1655; test: Growth of K-12 MG1655 in varying concentrations of fumaric, itaconic, malic and succinic acid, Growth Profiler; format: cell-based
Experimental: Five colonies from wild-type K-12 MG1655 and 10 individual colonies deriving from each population were inoculated into 300 μL M9+1% glucose in 96 well deepwell plates and incubated in a 300 rpm plate shaker at 37° C. The next day, cells were diluted 10× in M9+1% glucose and 30 μL was transferred into clear-bottomed 96 well half-deepwell plates (with rectangular wells) containing M9+1% glucose and M9+1% glucose+52.78 g/L glutaric acid or 55.56 g/L adipic acid, such that the final concentration of glutaric acid or adipic acid was 47.5 g/L or 50 g/L, respectively. In addition, cryogenic glycerol stocks of the overnight culture were saved in a 96 well plate format. Half deepwell plates were incubated at 37° C. with 225 rpm shaking in a Growth Profiler (Enzyscreen), with optical scans of the plates taken at 15 minute intervals. Green pixel values integrated over a 1 mm diameter circular area in each well were converted to OD600 values using a previously determined calibration between OD600 and green pixel values.
Additionally, each evolved isolate was tested for cross-tolerance toward other dicarboxylic acids of interest. […] All diacids tested were either the neutral sodium salts, or the free diacid was neutralized with sodium hydroxide to pH 7.0 for testing.

## O=C(O)/C=C/C(=O)O [fumaric acid]
[1]; strain ADIP1-1
  growth rate μ (mean): 0.347 h⁻¹
  lag time tlag (mean): 10.2 h
[1]; strain ADIP1-9
  growth rate μ (mean): 0.328 h⁻¹
  lag time tlag (mean): 9.8 h
[1]; strain ADIP2-5
  growth rate μ (mean): 0.358 h⁻¹
  lag time tlag (mean): 11.4 h
[1]; strain ADIP2-6
  growth rate μ (mean): 0.380 h⁻¹
  lag time tlag (mean): 11.0 h
[1]; strain ADIP2-10
  growth rate μ (mean): 0.353 h⁻¹
  lag time tlag (mean): 11.0 h
[1]; strain ADIP3-2
  growth rate μ (mean): 0.327 h⁻¹
  lag time tlag (mean): 9.4 h
[1]; strain ADIP3-4
  growth rate μ (mean): 0.324 h⁻¹
  lag time tlag (mean): 9.7 h
[1]; strain ADIP3-8
  growth rate μ (mean): 0.343 h⁻¹
  lag time tlag (mean): 10.1 h
[1]; strain ADIP4-1
  growth rate μ (mean): 0.264 h⁻¹
  lag time tlag (mean): 11.9 h
[1]; strain ADIP4-8
  growth rate μ (mean): 0.254 h⁻¹
  lag time tlag (mean): 12.4 h
[1]; strain ADIP5-2
  growth rate μ (mean): 0.280 h⁻¹
  lag time tlag (mean): 10.6 h
[1]; strain ADIP5-6
  growth rate μ (mean): 0.444 h⁻¹
  lag time tlag (mean): 9.0 h
[1]; strain ADIP6-3
  growth rate μ (mean): 0.275 h⁻¹
  lag time tlag (mean): 11.3 h
[1]; strain ADIP6-9
  growth rate μ (mean): 0.250 h⁻¹
  lag time tlag (mean): 12.3 h
[1]; strain ADIP6-10
  growth rate μ (mean): 0.308 h⁻¹
  lag time tlag (mean): 10.0 h
[1]; strain ADIP7-2
  growth rate μ (mean): 0.312 h⁻¹
  lag time tlag (mean): 10.1 h
[1]; strain ADIP7-5
  growth rate μ (mean): 0.326 h⁻¹
  lag time tlag (mean): 10.0 h
[1]; strain ADIP8-3
  growth rate μ (mean): 0.202 h⁻¹
  lag time tlag (mean): 14.4 h
[1]; strain ADIP8-7
  growth rate μ (mean): 0.188 h⁻¹
  lag time tlag (mean): 16.1 h
[1]; strain ADIP8-10
  growth rate μ (mean): 0.221 h⁻¹
  lag time tlag (mean): 14.3 h
[1]; strain GLUT1-3
  growth rate μ (mean): 0.293 h⁻¹
  lag time tlag (mean): 13.3 h
[1]; strain GLUT1-9
  growth rate μ (mean): 0.274 h⁻¹
  lag time tlag (mean): 14.9 h
[1]; strain GLUT1-10
  growth rate μ (mean): 0.289 h⁻¹
  lag time tlag (mean): 18.9 h
[1]; strain GLUT2-1
  growth rate μ (mean): 0.277 h⁻¹
  lag time tlag (mean): 13.5 h
[1]; strain GLUT2-9
  growth rate μ (mean): 0.267 h⁻¹
  lag time tlag (mean): 12.2 h
[1]; strain GLUT2-10
  growth rate μ (mean): 0.312 h⁻¹
  lag time tlag (mean): 12.3 h
[1]; strain GLUT3-5
  growth rate μ (mean): 0.263 h⁻¹
  lag time tlag (mean): 16.6 h
[1]; strain GLUT3-7
  growth rate μ (mean): 0.264 h⁻¹
  lag time tlag (mean): 16.2 h
[1]; strain GLUT3-9
  growth rate μ (mean): 0.305 h⁻¹
  lag time tlag (mean): 24.3 h
[1]; strain GLUT4-1
  growth rate μ (mean): 0.295 h⁻¹
  lag time tlag (mean): 14.6 h
[1]; strain GLUT4-4
  growth rate μ (mean): 0.287 h⁻¹
  lag time tlag (mean): 15.3 h
[1]; strain GLUT4-10
  growth rate μ (mean): 0.274 h⁻¹
  lag time tlag (mean): 16.3 h
[1]; strain GLUT5-4
  growth rate μ (mean): 0.386 h⁻¹
  lag time tlag (mean): 14.1 h
[1]; strain GLUT5-5
  growth rate μ (mean): 0.375 h⁻¹
  lag time tlag (mean): 15.1 h
[1]; strain GLUT5-9
  growth rate μ (mean): 0.370 h⁻¹
  lag time tlag (mean): 14.9 h
[1]; strain GLUT6-4
  growth rate μ (mean): 0.281 h⁻¹
  lag time tlag (mean): 13.8 h
[1]; strain GLUT6-5
  growth rate μ (mean): 0.279 h⁻¹
  lag time tlag (mean): 13.2 h
[1]; strain GLUT6-10
  growth rate μ (mean): 0.277 h⁻¹
  lag time tlag (mean): 14.2 h
[1]; strain GLUT7-2
  growth rate μ (mean): 0.304 h⁻¹
  lag time tlag (mean): 14.6 h
[1]; strain GLUT7-6
  growth rate μ (mean): 0.261 h⁻¹
  lag time tlag (mean): 19.5 h
[1]; strain GLUT7-7
  growth rate μ (mean): 0.193 h⁻¹
  lag time tlag (mean): 22.0 h
[1]; strain GLUT8-5
  growth rate μ (mean): 0.247 h⁻¹
  lag time tlag (mean): 14.4 h
[1]; strain GLUT8-6
  growth rate μ (mean): 0.272 h⁻¹
  lag time tlag (mean): 43.5 h
[1]; strain GLUT8-9
  growth rate μ (mean): 0.196 h⁻¹
  lag time tlag (mean): 54.3 h
[1]; strain MG1655 (Table 26)
  growth rate μ (mean): 0.216 h⁻¹
  lag time tlag (mean): 16.6 h
[1]; strain MG1655 (Table 27)
  growth rate μ (mean): 0.212 h⁻¹
  lag time tlag (mean): 15.5 h
[2]; growth rate of K-12 MG1655, 10 g/L diacid (sodium salt)
  μ (mean): 0.662 h^1
[2]; growth rate of K-12 MG1655, 20 g/L diacid (sodium salt)
  μ (mean): 0.615 h^1
[2]; growth rate of K-12 MG1655, 30 g/L diacid (sodium salt)
  μ (mean): 0.482 h^1
[2]; growth rate of K-12 MG1655, 40 g/L diacid (sodium salt)
  μ (mean): 0.285 h^1
[2]; growth rate of K-12 MG1655, 50 g/L diacid (sodium salt)
  μ (mean): 0.116 h^1
[2]; lag time of K-12 MG1655, 10 g/L diacid (sodium salt)
  tlag (mean): 5.8 h
[2]; lag time of K-12 MG1655, 20 g/L diacid (sodium salt)
  tlag (mean): 6.9 h
[2]; lag time of K-12 MG1655, 30 g/L diacid (sodium salt)
  tlag (mean): 9.5 h
[2]; lag time of K-12 MG1655, 40 g/L diacid (sodium salt)
  tlag (mean): 15.4 h
[2]; lag time of K-12 MG1655, 50 g/L diacid (sodium salt)
  tlag (mean): 30.2 h
